Laboratory results published in patent US4156724A, “N-acylamino-alpha-arylacetamido cephalosporins and antibacterial compositions and methods containing them” (Sumitomo Chemical Company, Limited, priority 1974, dated 1979).
Converted amounts (≈) assume the structure as drawn.

Experiments:
Format in all cases: cell-based
[1] = system: Staphylococcus aureus 209 P; experiment: Minimum Inhibitory Concentration, Staphylococcus aureus 209 P; conditions: Staphylococcus aureus 209 P; for MIC: read-out: Minimum Inhibitory Concentration
Experimental: (§1) anti-microbial activity tests were carried out on the compounds obtained in the Examples.

[2] = system: Klebsiella pneumoniae 602; experiment: Minimum Inhibitory Concentration, Klebsiella pneumoniae 602; conditions: for MIC: Klebsiella pneumoniae, 602, Klebsiella pneumoniae 602, read-out: Minimum Inhibitory Concentration; for Minimum Inhibitory Concentration: Klebsiella pneumoniae 602
Experimental: as §1

[3] = system: Enterobacter aerogeneus No. 75; experiment: Minimum Inhibitory Concentration, Enterobacter aerogeneus No. 75; conditions: Enterobacter aerogeneus No. 75; for MIC: read-out: Minimum Inhibitory Concentration
Experimental: as §1

[4] = system: Escherichia coli NIHJ; experiment: Minimum Inhibitory Concentration, Escherichia coli NIHJ; conditions: Escherichia coli NIHJ; for MIC: read-out: Minimum Inhibitory Concentration
Experimental: as §1

[5] = system: Pseudomonas aeruginosa 104; experiment: Minimum Inhibitory Concentration, Pseudomonas aeruginosa 104; conditions: Pseudomonas aeruginosa 104; for MIC: read-out: Minimum Inhibitory Concentration
Experimental: as §1

[6] = system: Staphylococcus aureus FS 289; experiment: Minimum Inhibitory Concentration, Staphylococcus aureus FS 289; conditions: Staphylococcus aureus FS 289, strain resistant to penicillin; for MIC: FS289, read-out: Minimum Inhibitory Concentration
Experimental: as §1
*Staphylococcus aureus FS 289: strain resistant to penicillin

[7] = system: Serratia No. 72; experiment: Minimum Inhibitory Concentration, Serratia No. 72
Experimental: as §1

[8] = system: Proteus vulgaris HX 19; experiment: Minimum Inhibitory Concentration, Proteus vulgaris HX 19; conditions: Proteus vulgaris HX 19; for MIC: HX19, read-out: Minimum Inhibitory Concentration
Experimental: as §1

Row | SMILES | MIC [1] [µg/mL] | MIC [2] [µg/mL] | MIC [3] [µg/mL] | MIC [4] [µg/mL] | MIC [5] [µg/mL] | MIC [6] [µg/mL] | MIC [7] [µg/mL] | MIC [8] [µg/mL] | Minimum Inhibitory Concentration [1] [µg/mL] | Minimum Inhibitory Concentration [2] [µg/mL] | Minimum Inhibitory Concentration [3] [µg/mL] | Minimum Inhibitory Concentration [4] [µg/mL] | Minimum Inhibitory Concentration [5] [µg/mL] | Minimum Inhibitory Concentration [6] [µg/mL] | Minimum Inhibitory Concentration [7] [µg/mL] | Minimum Inhibitory Concentration [8] [µg/mL]
1 | Nc1ccc(C(NC(=O)c2cnc3cccnc3c2O)C(=O)NC2C(=O)N3C(C(=O)O)=C(CSc4nnc(CO)s4)CSC23)cc1 (stereo not drawn) [Example 81] | 1.56 (≈ 2.29 µM) | 3.13 (≈ 4.6 µM) | 3.13 (≈ 4.6 µM) | 1.56 (≈ 2.29 µM) | 3.13 (≈ 4.6 µM) | 6.25 (≈ 9.18 µM) | 12.5 (≈ 18.4 µM) | 0.1 (≈ 0.147 µM) | – | – | – | – | – | – | – | –
2 | CC(=O)OCC1=C(C(=O)[O-])N2C(=O)C(NC(=O)C(NC(=O)c3cnc4ncncc4c3O)c3ccc(O)cc3)C2SC1.[Na+] (stereo not drawn) [Example 139] | – | – | – | – | – | – | – | – | 1.56 | 6.25 | 50 | 12.5 | 12.5 | 12.5 | 50 | 3.13
3 | CSc1ncc2c(O)c(C(=O)NC(C(=O)NC3C(=O)N4C(C(=O)O)=C(CSc5cnn[nH]5)CSC34)c3cccc(N)c3)cnc2n1 (stereo not drawn) [Example 73] | 0.78 (≈ 1.15 µM) | 3.13 (≈ 4.6 µM) | 6.25 (≈ 9.18 µM) | 6.25 (≈ 9.18 µM) | 6.25 (≈ 9.18 µM) | 6.25 (≈ 9.18 µM) | 25 (≈ 36.7 µM) | 0.2 (≈ 0.294 µM) | – | – | – | – | – | – | – | –
4 | CSc1ccc2ncc(C(=O)N[C@@H](C(=O)N[C@@H]3C(=O)N4C(C(=O)O)=C(CSc5nnc(C)s5)CS[C@H]34)c3cccc(NC(N)=O)c3)c(O)c2n1 [Example 40] | 0.78 (≈ 1.03 µM) | 1.56 (≈ 2.07 µM) | 6.25 (≈ 8.29 µM) | 3.13 (≈ 4.15 µM) | 3.13 (≈ 4.15 µM) | 6.25 (≈ 8.29 µM) | 12.5 (≈ 16.6 µM) | 0.1 (≈ 0.133 µM) | – | – | – | – | – | – | – | –
5 | NC(=O)Nc1cccc(C(NC(=O)c2cccnc2O)C(=O)NC2C(=O)N3C(C(=O)O)=C(CSc4nnc(CO)s4)CSC23)c1 (stereo not drawn) [Example 49] | 0.78 (≈ 1.16 µM) | 6.25 (≈ 9.29 µM) | 25 (≈ 37.2 µM) | 12.5 (≈ 18.6 µM) | 25 (≈ 37.2 µM) | 12.5 (≈ 18.6 µM) | 50 (≈ 74.3 µM) | 0.78 (≈ 1.16 µM) | – | – | – | – | – | – | – | –
6 | CC(=O)OCC1=C(C(=O)[O-])N2C(=O)C(NC(=O)C(NC(=O)c3cnc4cccnc4c3O)c3ccc(O)c(O)c3)C2SC1.[Na+] (stereo not drawn) [Example 142] | – | – | – | – | – | – | – | – | 1.56 | 3.13 | 6.25 | 3.13 | 6.25 | 6.25 | 50 | 0.78

Further lines, with some results ahead:

Row | MIC [1] [µg/mL] | MIC [2] [µg/mL] | MIC [3] [µg/mL] | MIC [4] [µg/mL] | MIC [5] [µg/mL] | MIC [6] [µg/mL] | MIC [7] [µg/mL] | MIC [8] [µg/mL] | SMILES | Minimum Inhibitory Concentration [1] [µg/mL] | Minimum Inhibitory Concentration [2] [µg/mL] | Minimum Inhibitory Concentration [3] [µg/mL] | Minimum Inhibitory Concentration [4] [µg/mL] | Minimum Inhibitory Concentration [5] [µg/mL] | Minimum Inhibitory Concentration [6] [µg/mL] | Minimum Inhibitory Concentration [7] [µg/mL] | Minimum Inhibitory Concentration [8] [µg/mL]
7 | 0.78 (≈ 1.13 µM) | 1.56 (≈ 2.26 µM) | 3.13 (≈ 4.53 µM) | 1.56 (≈ 2.26 µM) | 3.13 (≈ 4.53 µM) | 6.25 (≈ 9.04 µM) | 12.5 (≈ 18.1 µM) | 0.1 (≈ 0.145 µM) | Cn1nnnc1SCC1=C(C(=O)O)N2C(=O)[C@@H](NC(=O)[C@H](NC(=O)c3cnc4cccnc4c3O)c3cccc(NC(N)=O)c3)[C@H]2SC1 [Example 38] | – | – | – | – | – | – | – | –
8 | 1.56 (≈ 2.12 µM) | 6.25 (≈ 8.51 µM) | 25 (≈ 34 µM) | 12.5 (≈ 17 µM) | 6.25 (≈ 8.51 µM) | 12.5 (≈ 17 µM) | 50 (≈ 68 µM) | 0.39 (≈ 0.531 µM) | Cn1nnnc1SCC1=C(C(=O)O)N2C(=O)C(NC(=O)C(NC(=O)c3cnc4nc(N5CCNCC5)ncc4c3O)c3ccc(O)cc3)C2SC1 (stereo not drawn) [Example 163] | – | – | – | – | – | – | – | –
9 | 0.78 (≈ 1.09 µM) | 6.25 (≈ 8.77 µM) | 12.5 (≈ 17.5 µM) | 12.5 (≈ 17.5 µM) | 12.5 (≈ 17.5 µM) | 12.5 (≈ 17.5 µM) | 50 (≈ 70.2 µM) | 1.56 (≈ 2.19 µM) | CSc1nc(O)c2c(O)c(C(=O)NC(C(=O)NC3C(=O)N4C(C(=O)O)=C(CSc5nnnn5C)CSC34)c3ccc(O)cc3)cnc2n1 (stereo not drawn) [Example 160] | – | – | – | – | – | – | – | –
